System: TNF α
Assay: inhibition of endotoxin (LPS) induced TNF production in vivo in anaesthetised rats
Parameters: species or system Male CD rats
Conditions: rat, 10 mg.kg^-1 intraperitoneally, 1 hour prior to LPS
Method: Test compounds were assessed for their ability to inhibit release of endotoxin induced TNF production in vivo.
(§1) Male CD rats (Charles River, UK) weighing between 300 g-400 g were anaesthetised with an intra-peritoneal injection of a mixture of 62.5 mg.kg^-1 thiopental and 22.5 mg.kg^-1 sodium pentobarbitone (Thiopental, Sigma Chemical Co., UK; Sodium pentobarbitone (Sagatal), May and Baker., UK). The trachea was exposed and cannulated to allow spontaneous respiration through a patent airway. The left jugular vein was exposed and cannulated for the administration of LPS. The right femoral artery was exposed and cannulated for withdrawal of blood samples. Blood samples (1 ml) were removed 5 minutes prior to bolus administration of either LPS (E. coil serotype 0111:b4, Difco Laboratories, USA) or saline (NaCL 0.9% w/v) and at intervals of 1 hour and 2 hours after LPS. Removed blood was replaced with equal amounts of saline.
The peak of TNF release was at the 1 hour timepoint. TNF levels were expressed in units/ml where 1 unit is the equivalent of 1 pg of mouse TNF α.
(§2) Rat serum TNF levels were measured using a mouse TNF α reference standard. The commercial ELISA kits were from Genzyme.
Test compounds were administered intraperitoneally to anaesthetised rats at a dose of 10 mg.kg^-1, 1 hour prior to LPS administration.
The results are expressed as the % inhibition of maximal TNF elevation relative to control: […]

Row | Structure (SMILES) | % Inhibition of Maximal TNF Elevation relative to control
1 | CNC(=O)[C@H](Cc1ccc(OC)cc1)NC(=O)[C@H](CC(C)C)[C@H](C)C(=O)NO [Compound 1, 3R-(2-(4-methoxyphenyl)-1S-methylcarbamoyl-ethylcarbamoyl)-2S,5-dimethyl-hexanohydroxamic acid] | 0%
2 | CNC(=O)[C@H](Cc1ccc(NC(C)=O)cc1)NC(=O)[C@@H](CC(=O)NO)CC(C)C [Compound 23, 3R-(2-(4-acetamidophenyl)-1S-methylcarbamoyl-ethylcarbamoyl)-5-methyl-hexanohydroxamic acid] | 35%
3 | CNC(=O)[C@H](Cc1ccc(OC)cc1)NC(=O)[C@@H](CC(=O)NO)CC(C)C [Compound 70, 3R-(2(4-methoxyphenyl)-1S-methylcarbamoyl-ethylcarbamoyl)-5-methyl-hexanohydroxamic acid] | 37%
4 | CC(C)C[C@H](CC(=O)NO)C(=O)N[C@@H](Cc1ccccc1)C(=O)NCCCN1CCCC1=O [Compound 74, 3R-(2-phenyl-1S-[2-oxo-pyrolid-1-yl]propylcarbamoyl-ethylcarbamoyl)-5-methyl-hexanohydroxamic acid] | 28%
5 | CNC(=O)[C@H](Cc1ccccc1)NC(=O)[C@H](CCc1ccccc1)CC(=O)NO [Compound 87, 3R-(2-phenyl-1S-methylcarbamoyl-ethylcarbamoyl)-5-phenyl-pentanohydroxamicacid] | 4%
6 | CNC(=O)[C@@H](NC(=O)[C@@H](CC(=O)NO)CC(C)C)C(C)(C)C [Compound 88, 3R-(2,2-dimethyl-1S-methylcarbamoyl-propylcarbamoyl)-5-methyl-hexanohydroxamic acid] | 66%
7 | CCOC(=O)CNC(=O)[C@H](CC(C)C)NC(=O)[C@H](CC(C)C)[C@H](CCCCN1C(=O)c2ccccc2C1=O)C(=O)NO [Compound 93, 2S-(4-phthalimido-butyl)-3R-(3-methyl-1S-ethoxycarbonylmethylcarbamoyl-butylcarbamoyl)-5-methyl-hexanohydroxamic acid] | 43%
8 | CC(C)C[C@H](CC(=O)NO)C(=O)N[C@@H](Cc1ccccc1)C(=O)NCc1cccnc1 [Compound 98, 3R-(2-phenyl-1S-[pyrid-3-ylmethylcarbamoyl]-ethylcarbamoyl)-5-methyl-hexanohydroxamic acid] | 28%
9 | CNC(=O)[C@H](Cc1ccccc1)NC(=O)[C@H](CC(C)C)[C@H](CS(=O)(=O)c1cccs1)C(=O)NO [Compound 99, 2S-(thien-2-ylsulfonylmethyl)-3R-(2-phenyl-1S-methylcarbamoyl-ethylcarbamoyl)-5-methyl-hexanohydroxamic acid] | 55%

System: TNFα release from human monocytic cell line, U937
Assay: inhibition of TNFα release from PMA-stimulated human monocytic cell line U937 (18 h, ELISA)
Type: cell-based
Conditions: U-937, PMA 50 nM, U937 cells, 18 hours at 37° C., reported by Group A/B/C, read-out: IC50 (concentration which inhibits the release of TNFα by 50% relative to the control culture)
Method: Metalloproteinase inhibitors can prevent the release of TNF from PMA-stimulated human monocytic cell line U937.
The ability of representative compounds, which are inhibitors of metalloproteinases, to inhibit the release of TNF was investigated. The assay is based on the ability of phorbol myristate acetate (PMA) to stimulate the release of TNFα from a human monocytic cell line, U937.
U937 cells cultured in RPMI 1640 medium +5% foetal calf serum were centrifuged at 1000×g for 5 minutes and then resuspended in medium at 2×10^6 /ml. 1 ml of cell suspension was aliquoted into individual wells of 24-well plates. Test compounds were dissolved in dimethyl sulphoxide (DMSO) at a stock concentration of 100 mM, then diluted to 50×the final required concentration with RPMI 1640 medium. 20 μl of the diluted compounds were added to U937 cells in duplicate wells. TNFα release was stimulated by addition of PMA to the cells at a final concentration of 50 nM. Appropriate control cultures were set up in duplicate. The plates were incubated for 18 hours at 37° C., 5% CO2, then centrifuged at 1000 ×g for 5 minutes. A specific ELISA for TNFα obtained from British Bio-technology Products Limited, Abingdon, England was used to measure TNFα levels in the culture supernatants according to the protocol supplied.
The average concentration of test compound which inhibits the release of TNFα by 50% relative to the control culture was assessed as greater than 90 μM, in the range 10 μM-90 μM, or less than 10 μM.

Row | IC50 | Structure (SMILES)
10 | < 10 µM | CNC(=O)[C@H](Cc1ccc(OC)cc1)NC(=O)[C@H](CC(C)C)[C@H](C)C(=O)NO [Compound 1, 3R-(2-(4-methoxyphenyl)-1S-methylcarbamoyl-ethylcarbamoyl)-2S,5-dimethyl-hexanohydroxamic acid]
11 | < 10 µM | CNC(=O)[C@H](Cc1ccccc1)NC(=O)[C@H](CC(C)C)[C@H](CSc1ccccc1)C(=O)NO [Compound 2, 2S-(phenylsulfanylmethyl)-3R-(2-phenyl-1S-methylcarbamoyl-ethylcarbamoyl)-5-methyl-hexanohydroxamic acid]
12 | < 10 µM | CNC(=O)[C@H](Cc1ccccc1)NC(=O)[C@H](CC(C)C)[C@H](CSc1cccs1)C(=O)NO [Compound 3, 2S-(thien-2-ylsulfanylmethyl)-3R-(2-phenyl-1S-methylcarbamoyl-ethylcarbamoyl)-5-methyl-hexanohydroxamic acid]
13 | 10 to 90 µM | CNC(=O)[C@H](Cc1ccc(OC)cc1)NC(=O)[C@@H](CC(C)C)[C@H](C)C(=O)NO [Compound 69, 3S-(2(4-methoxyphenyl)-1S-methylcarbamoyl-ethylcarbamoyl)-2S,5-dimethyl-hexanohydroxamic acid]
14 | 10 to 90 µM | CNC(=O)[C@H](Cc1ccc(OC)cc1)NC(=O)[C@@H](CC(=O)NO)CC(C)C [Compound 70, 3R-(2(4-methoxyphenyl)-1S-methylcarbamoyl-ethylcarbamoyl)-5-methyl-hexanohydroxamic acid]
15 | > 90 µM | COc1ccc(C[C@H](NC(=O)[C@@H](CC(=O)NO)CC(C)C)C(=O)N(C)C)cc1 [Compound 100, 3R-(2-(4-methoxyphenyl)-1S-dimethylcarbamoyl-ethylcarbamoyl)-5-methyl-hexanohydroxamic acid]
16 | > 90 µM | CC(C)C[C@H](CC(=O)NO)C(=O)NC1Cc2ccccc2NC1=O (stereo partly drawn) [Compound 101, 3R-(2-oxo-1,2,3,4-tetrahydro-quinoli-3-ylcarbamoyl)-5-methyl-hexanohydroxamic acid]

System: TNF α
Assay: variation: infusion of compound before LPS, inhibition of TNF elevation in vivo
Parameters: species or system Male CD rats
Conditions: rat, infusion 1 mg/kg/hr, 15 minutes prior to LPS 500 μg.kg^-1, for 2 hours
Method: as §1, §2

Row | Structure (SMILES) | inhibition of maximal TNF elevation relative to control
17 | CNC(=O)[C@H](Cc1ccc(OCC(=O)O)cc1)NC(=O)[C@H](CC(C)C)[C@H](CSc1cccs1)C(=O)NO [Compound 29, 2S-(thien-2-ylsulphanylmethyl)-3R-(2-(4-carboxymethoxyphenyl)-1S-methylcarbamoyl-ethylcarbamoyl)-5-methyl-hexanohydroxamic acid] | 60%

Reference: US5691382A, “Inhibition of TNF production with matrix metaloproteinase inhibitors” (British Biotech Pharmaceuticals Limited, priority 1992, dated 1997)
